Measured values from the supplement of paper PMC10307832.

Experiments:
Assay in all cases: relative viability (nuclei count vs DMSO), 5 days (fraction); higher = more cells survive
A-427 = system: A-427
How it was run: (§1)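 Nuclei were stained with Hoechst during a one-step fixation (final 0.05% Triton X-100, 1% formaldehyde, 1 ug/ml Hoechst) carried out 5 days after dosing, then counted on 4× images. The cells, lung cancer lines in 1536-well plates, had been dosed by pin tool the day after seeding with one drug alone or a fixed anchor-drug dose plus five library-drug doses (not always all listed) in √10 steps. Relative viability is the nuclei count in treated wells divided by that in vehicle wells, and each value is the median of duplicate plates.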

NCI-H2342 = system: NCI-H2342
How it was run: as §1

NCI-H1975 = system: NCI-H1975
How it was run: as §1

SW 900 = system: SW 900
How it was run: as §1

NCI-H1792 = system: NCI-H1792
How it was run: as §1

NCI-H1734 = system: NCI-H1734
How it was run: as §1

NCI-H2405 = system: NCI-H2405
How it was run: as §1

LC-2-ad = system: LC-2-ad
How it was run: as §1

NCI-H520 = system: NCI-H520
How it was run: as §1

COR-L 105 = system: COR-L 105
How it was run: as §1

CAL-12T = system: CAL-12T
How it was run: as §1

SW 1573 = system: SW 1573
How it was run: as §1

HCC-15 = system: HCC-15
How it was run: as §1

HCC-44 = system: HCC-44
How it was run: as §1

NCI-H838 = system: NCI-H838
How it was run: as §1

NCI-H1395 = system: NCI-H1395
How it was run: as §1

LCLC-97TM1 = system: LCLC-97TM1
How it was run: as §1

UMC-11 = system: UMC-11
How it was run: as §1

NCI-H2347 = system: NCI-H2347
How it was run: as §1

NCI-H2023 = system: NCI-H2023
How it was run: as §1

NCI-H1915 = system: NCI-H1915
How it was run: as §1

EPLC-272H = system: EPLC-272H
How it was run: as §1

Cc1csc(=NC2CCCCC2)n1/N=C/c1ccc(O)c(O)c1O [MIM1] + CC(=O)c1c(C)c2cnc(Nc3ccc(N4CCNCC4)cn3)nc2n(C2CCCC2)c1=O [Palbociclib] (partner 0.5 µM)
relative viability (A-427; first compound 0.2 µM): 0.523
relative viability (A-427; first compound 0.6325 µM): 0.471
relative viability (A-427; first compound 2 µM): 0.545
relative viability (A-427; first compound 6.325 µM): 0.473
relative viability (A-427; first compound 20 µM): 0.337
relative viability (NCI-H2342; first compound 0.2 µM): 0.525
relative viability (NCI-H2342; first compound 0.6325 µM): 0.543
relative viability (NCI-H2342; first compound 2 µM): 0.573
relative viability (NCI-H2342; first compound 6.325 µM): 0.515
relative viability (NCI-H2342; first compound 20 µM): 0.57
relative viability (NCI-H1975; first compound 0.2 µM): 0.529
relative viability (NCI-H1975; first compound 0.6325 µM): 0.67
relative viability (NCI-H1975; first compound 2 µM): 0.519
relative viability (NCI-H1975; first compound 6.325 µM): 0.256
relative viability (NCI-H1975; first compound 20 µM): 0.169
relative viability (SW 900; first compound 0.2 µM): 0.632
relative viability (SW 900; first compound 0.6325 µM): 0.581
relative viability (SW 900; first compound 2 µM): 0.507
relative viability (SW 900; first compound 6.325 µM): 0.211
relative viability (SW 900; first compound 20 µM): 0.171
relative viability (NCI-H1792; first compound 0.2 µM): 0.659
relative viability (NCI-H1792; first compound 0.6325 µM): 0.622
relative viability (NCI-H1792; first compound 2 µM): 0.644
relative viability (NCI-H1792; first compound 6.325 µM): 0.475
relative viability (NCI-H1792; first compound 20 µM): 0.56
relative viability (NCI-H1734; first compound 0.2 µM): 0.32
relative viability (NCI-H1734; first compound 0.6325 µM): 0.361
relative viability (NCI-H1734; first compound 2 µM): 0.34
relative viability (NCI-H1734; first compound 6.325 µM): 0.322
relative viability (NCI-H1734; first compound 20 µM): 0.193
relative viability (NCI-H2405; first compound 0.2 µM): 0.512
relative viability (NCI-H2405; first compound 0.6325 µM): 0.549
relative viability (NCI-H2405; first compound 2 µM): 0.605
relative viability (NCI-H2405; first compound 6.325 µM): 0.383
relative viability (NCI-H2405; first compound 20 µM): 0.351
relative viability (LC-2-ad; first compound 0.2 µM): 0.463
relative viability (LC-2-ad; first compound 0.6325 µM): 0.471
relative viability (LC-2-ad; first compound 2 µM): 0.502
relative viability (LC-2-ad; first compound 6.325 µM): 0.289
relative viability (LC-2-ad; first compound 20 µM): 0.182
relative viability (NCI-H520; first compound 0.2 µM): 0.195
relative viability (NCI-H520; first compound 0.6325 µM): 0.239
relative viability (NCI-H520; first compound 2 µM): 0.201
relative viability (NCI-H520; first compound 6.325 µM): 0.22
relative viability (NCI-H520; first compound 20 µM): 0.183
relative viability (COR-L 105; first compound 0.2 µM): 0.472
relative viability (COR-L 105; first compound 0.6325 µM): 0.435
relative viability (COR-L 105; first compound 2 µM): 0.396
relative viability (COR-L 105; first compound 6.325 µM): 0.396
relative viability (COR-L 105; first compound 20 µM): 0.323
relative viability (CAL-12T; first compound 0.2 µM): 0.526
relative viability (CAL-12T; first compound 0.6325 µM): 0.386
relative viability (CAL-12T; first compound 2 µM): 0.481
relative viability (CAL-12T; first compound 6.325 µM): 0.268
relative viability (CAL-12T; first compound 20 µM): 0.118
relative viability (SW 1573; first compound 0.2 µM): 0.412
relative viability (SW 1573; first compound 0.6325 µM): 0.501
relative viability (SW 1573; first compound 2 µM): 0.365
relative viability (SW 1573; first compound 6.325 µM): 0.325
relative viability (SW 1573; first compound 20 µM): 0.148
relative viability (HCC-15; first compound 0.2 µM): 0.763
relative viability (HCC-15; first compound 0.6325 µM): 0.709
relative viability (HCC-15; first compound 2 µM): 0.763
relative viability (HCC-15; first compound 6.325 µM): 0.433
relative viability (HCC-15; first compound 20 µM): 0.121
relative viability (HCC-44; first compound 0.2 µM): 0.902
relative viability (HCC-44; first compound 0.6325 µM): 0.981
relative viability (HCC-44; first compound 2 µM): 0.94
relative viability (HCC-44; first compound 6.325 µM): 0.608
relative viability (HCC-44; first compound 20 µM): 0.578
relative viability (NCI-H838; first compound 0.2 µM): 0.202
relative viability (NCI-H838; first compound 0.6325 µM): 0.26
relative viability (NCI-H838; first compound 2 µM): 0.216
relative viability (NCI-H838; first compound 6.325 µM): 0.169
relative viability (NCI-H838; first compound 20 µM): 0.168
relative viability (NCI-H1395; first compound 0.2 µM): 0.583
relative viability (NCI-H1395; first compound 0.6325 µM): 0.6
relative viability (NCI-H1395; first compound 2 µM): 0.596
relative viability (NCI-H1395; first compound 6.325 µM): 0.579
relative viability (NCI-H1395; first compound 20 µM): 0.406
relative viability (LCLC-97TM1; first compound 0.2 µM): 0.22
relative viability (LCLC-97TM1; first compound 0.6325 µM): 0.22
relative viability (LCLC-97TM1; first compound 2 µM): 0.217
relative viability (LCLC-97TM1; first compound 6.325 µM): 0.169
relative viability (LCLC-97TM1; first compound 20 µM): 0.0835
relative viability (UMC-11; first compound 0.2 µM): 0.368
relative viability (UMC-11; first compound 0.6325 µM): 0.318
relative viability (UMC-11; first compound 2 µM): 0.33
relative viability (UMC-11; first compound 6.325 µM): 0.362
relative viability (UMC-11; first compound 20 µM): 0.338
relative viability (NCI-H2347; first compound 0.2 µM): 0.408
relative viability (NCI-H2347; first compound 0.6325 µM): 0.404
relative viability (NCI-H2347; first compound 2 µM): 0.446
relative viability (NCI-H2347; first compound 6.325 µM): 0.42
relative viability (NCI-H2347; first compound 20 µM): 0.356
relative viability (NCI-H2023; first compound 0.2 µM): 0.393
relative viability (NCI-H2023; first compound 0.6325 µM): 0.387
relative viability (NCI-H2023; first compound 2 µM): 0.391
relative viability (NCI-H2023; first compound 6.325 µM): 0.194
relative viability (NCI-H2023; first compound 20 µM): 0.0614
relative viability (NCI-H1915; first compound 0.2 µM): 0.527
relative viability (NCI-H1915; first compound 0.6325 µM): 0.529
relative viability (NCI-H1915; first compound 2 µM): 0.497
relative viability (NCI-H1915; first compound 6.325 µM): 0.395
relative viability (NCI-H1915; first compound 20 µM): 0.181
relative viability (EPLC-272H; first compound 0.2 µM): 0.328
relative viability (EPLC-272H; first compound 0.6325 µM): 0.332
relative viability (EPLC-272H; first compound 2 µM): 0.302
relative viability (EPLC-272H; first compound 6.325 µM): 0.279
relative viability (EPLC-272H; first compound 20 µM): 0.149
